Patent US20020049161A1, “Pharmaceutical combination preparations containing erythropoietin and iron preparations” (Roche Diagnostics GmbH, priority 1995, published 2002)

Key:
[1] = test system: hemodialysis patients; assay: Iron status and safety diagnostic parameters in hemodialysis patients under rhEPO/iron therapy; type: in vivo, human
Protocol: When conducting the combination therapy using the combination preparation according to the invention, the maximum weekly dosage can be concluded in a quite simple fashion by determining the diagnostic parameters for the iron status, particularly the iron, transferrin, transferrin saturation and ferritin parameters.
Preferably, the ferritin concentration is at least 125 μg/l, particularly at least 150 μg/l, and up to 270 μg/l at maximum, especially up to 250 μg/l at maximum. Advantageously, the iron concentration is between 10-20 μmol/l (corresponding to about 56-112 μg/dl) and the transferrin concentration between […] (corresponding to about 240-480 mg/dl) The transferrin saturation is defined as the ratio of serum/plasma iron concentration to serum/plasma transferrin concentration (multiplied by a correction factor of 1.41). It is a non-dimensional figure not depending on the patient's hydration condition. The transferrin saturation is calculated according to the formula: […]
In order to safely exclude undesirable side effects, the acute phase parameter CRP (5 mg/l±100%) [CRP=C reactive protein) is measured, with CRP currently being regarded as the best protein marker of inflammatory reactions. In addition, the liver parameters GPT (glutamate pyruvate transaminase), GOT (glutamate oxalic acetate transaminase) and γ-GT (γ-glutamyltransferase) may be determined, which should fall within the following ranges: (determination at 37° C.): GPT: <50 U/l; GOT: <50 U/l; γ-GT: <40 U/l, with the GPT parameter currently ranking first in liver diagnostics.
The determination of the iron status is effected by analyzing samples of body fluids (blood, serum, urine, etc.) from the patients in question. For the determination of the iron status, particularly the concentrations of iron, transferrin, ferritin, transferrin receptor, the transferrin saturation, and the transferrin/ferritin saturation are determined. With hemodialysis patients, the iron, transferrin, ferritin and transferrin saturation parameters are preferably determined according to per se common analytical methods. […]

[2] = test system: anemia patients; assay: Iron status and safety diagnostic parameters in anemia patients under rhEPO/iron therapy; type: in vivo, human
Protocol: When conducting the combination therapy using the combination preparation of the invention to treat anemia, the weekly maximum dosage can be concluded in a quite simple fashion by determining the diagnostic parameters transferrin receptor (TfR), ferritin and the ratio of TfR to ferritin.
Advantageously, the TfR concentration is between 1500-2500 μg/l. The concentration ratio of TfR (in μg/l) to ferritin (in μg/l) is particularly in the range of 15-35, preferably at values above 20.
In order to safely exclude undesirable side effects, the acute phase parameter CRP (2-10 mg/l) [CRP=C-reactive protein) is measured. In addition, the liver parameter GPT (glutamate pyruvate transaminase) may be determined, which should be <50 U/l at 37° C. (<30 U/l at 25° C.). Furthermore, the hematological control parameters such as hematocrit (fraction of red blood cells in total volume) or the increase in hypochromic erythrocytes may optionally be utilized, wherein the reticulocytes may increase to a value of up to 15/1000-30/1000. The typical hemoglobin concentration is about 12-18 g/dl.
The determination of the iron status is effected by analyzing samples of body fluids (blood, serum, urine, etc.) from the patients in question. For the determination of the iron status, particularly the concentrations of iron, transferrin, ferritin, transferrin receptor, the transferrin saturation, and the transferrin/ferritin saturation are determined. With hemodialysis patients, the iron, transferrin, ferritin and transferrin saturation parameters are preferably determined according to per se common analytical methods. In particular, the determination of the transferrin/ferritin saturation value is relevant. In the case of anemia patients whose anemia has not been caused by hemodialysis, the ferritin concentration and the concentration of transferrin receptor are determined above all. In particular, the determination of the ratio of transferrin receptor to ferritin (transferrin receptor/ferritin saturation value) is relevant.
In addition, the serum ferritin level is determined. Ferritin is an iron-storing glycoprotein of which tissue-typical isoferritins are existing and which can be determined in the serum by immunological means, e.g., by a radioimmunoassay (RIA) or by turbidimetric methods as well. The ferritin value is a measure for iron storage in the tissue. In most of the laboratories, the normal range is between 30 and 300 ng/ml, and the geometrical mean value is 88 in males and 49 in females. The serum ferritin values are in close relationship to the total iron reserve of the body. Therefore, decreased serum ferritin levels are found only in case of iron deficiency. Increased levels are found in case of iron overloading. Likewise, increased serum ferritin levels are found in case of liver lesions or in association with some types of neoplasia, where ferritins may be bound to acute phase proteins. Similarly, the serum transferrin receptor may be determined using an enzyme-enhanced immune absorption test (enzyme-linked immunosorbent assay=ELISA), wherein a monoclonal antibody against the soluble receptor is used. The reference range is between 0.5-3 mg/l. The level is increased in case of slight deficiency in the iron depots. The concentrations of specific erythrocyte ferritins may be determined in order to characterize the iron depots, particularly if the serum ferritin cannot be utilized in case of tissue lesions or due to acute phase reactions.

[3] = Patient B (hemodialysis), 5,000 U rhEPO three times a week over 3 weeks
[4] = Patient E (anemia), 5,000 U rhEPO three times a week over 3 weeks
[5] = Patient F (anemia), iron infusions omitted, within 3 weeks

recombinant human erythropoietin [rhEPO]
ferritin value decreased to [1, 3]: < 500 µg/L | transferrin saturation decreased to [1, 3]: < 25% | ferritin values lowered to ([1]; Patient C (hemodialysis), iron infusions omitted, within 3 weeks): 500 µg/L | ferritin value decreased to [2, 4]: < 500 µg/L | transferrin receptor value increased to [2, 4]: above 1500 μg/l | transferrin saturation decreased to [2, 4]: < 25% | ferritin values lowered to [2, 5]: < 500 µg/L | transferrin receptor values increased to [2, 5]: above 1500 μg/l
